According to patent US12251385B2, “Covalent inhibitors of menin-MLL interaction for diabetes mellitus” (BIOMEA FUSION, INC., priority 2021, dated 2025):
Entries after “also recorded” stand apart in the source; their conditions may differ.

Tests used:
[1] = test system: Zucker diabetic fatty rats (ZDF rats, genotype ZDF-Lepr^fa/Crl); test: Restoration of glycemic control in diabetic fatty rats, dosing Days 1-16 (Example 102); assay type: in vivo, rat
Procedure: The present examples provides the ability of Compound 10 to restore glycemic control to diabetic Zucker diabetic fatty rats (ZDF rats, genotype ZDF-Lepr^fa/Crl; Charles River). Cornicelli et al., 2005, Charles River.
(§1) Control and test compounds were stored at 4° C. and prepared weekly as needed. The vehicle for positive control pioglitazone was 0.25% carboxymethylcellulose and 1% Tween® 80 in reverse osmosis deionized water. The vehicle for Compound 10 was 10% DMSO, 10% Solutol HS 15, and 80% (10% hydroxypropyl-β-cyclodextrin in 50 mM citrate buffer at pH 3.0).
(§2) On Day −3, twenty-four ZDF rats (plus eight spare ZDF rats) were measured for body weight and non-fasting glucose. LabDiet 5008 was provided ad libitum throughout the study, except during designated procedures, as was water. In order to minimize the effects of stress on blood glucose and body, all animals including the spares received daily sham doses with phosphate buffered saline pH 7.2 (dose volume 5 mL/kg) via gavage beginning on Study Day −5 to Day −1.
Vehicle, control, and test compound were administered via oral gavage according to the following design on Days 1-16.
On Days −3, 1, 8, and 14 non-fasting blood glucose was measured. […] The animals were weighed, and the animals were placed in clean cages without food. Access to water was provided throughout the procedure. The animals were fasted for five hours and a blood glucose measurement was determined. The animals were dosed via oral gavage with 2 g/kg glucose (10 mL/kg). Blood glucose was determined via tail snip. The second drop of blood from the animal was placed on a hand-held glucometer (Abbott Alpha Trak) at the following times relative to the glucose dose: zero (just prior to glucose dose), 15, 30, 60, 90, and 120 min. Following the final blood glucose measurement, food was returned to the cages. On Day 17, 4-hour fasting glucose was measured. Serum samples were used to measure insulin by ELISA. Analysis was performed in one to three days of each collections. […]

[2] = test system: streptozotocin (STZ) induced type II diabetes in Wistar Han rats; test: Restoration of glycemic control in streptozotocin-induced rats (Example 103); assay type: in vivo, rat
Procedure: The present example provides the ability of Compound 10 to restore glycemic control to streptozotocin (STZ) induced type II diabetes in Wistar Han rats. Fahmy et al., 2017, World J. Pharm. Med. Res. 3(3):37-39.
as §1, with “3.0). The vehicle for streptozotocin pretreatment was 0.1 M sodium citrate pH 4.5.” for “3.0).”
as §2, with “Wistar Han” for “ZDF”, “Starting on Day −42, D12451 Research Diet” for “LabDiet 5008”, “−1. 20% Glucose in drinking water (200 g/L) was provided ad libitum for 24 hr after streptozotocin injection on Day −14 and Day −7.” for “−1.”
On Days −14 and −7, streptozotocin was administered at 30 mg/kg/day QD intraperitoneally. Starting on Day 1, control and test compound were administered on the following schedule.
On Days −7 to −1 and on Days 1, 8, and 14 non-fasting blood glucose was measured. On Day 15, an oral glucose tolerance test was administered. The animals were weighed and the animals were placed in clean cages without food. Access to water was provided throughout the procedure. The animals were fasted for five hours and a blood glucose measurement was determined. The animals were dosed via oral gavage with 2 g/kg glucose (10 mL/kg). Blood glucose was determined via venipuncture. The second drop of blood from the animal was placed on a hand-held glucometer (Abbott Alpha Trak) at the following times relative to the glucose dose: zero (just prior to glucose dose), 15, 30, 60, 90, and 120 min. Following the final blood glucose measurement, food was returned to the cages. On Day 17, 4-hour fasting glucose was measured. Serum samples were used to measure insulin by ELISA. Analysis was performed in one to three days of each collection. On Day 17, terminal blood collection was obtained at about 8 mL per animal and measured for blood glucose.

[3] = test system: Type 2 Diabetes Mellitus (T2DM) Zucker Diabetic Fatty Rat model; test: Glycemic control in ZDF rats, 28 days treatment plus 28 days post-treatment (Example 104); assay type: in vivo
Procedure: Rats were treated daily with Compound 10, liraglutide, or vehicle for twenty-eight days and monitored for an additional twenty-eight days post-treatment.

[4] = test system: Zucker Diabetic Fatty (ZDF) Rat; test: ZDF rat model, 16 days dosing and drug washout to Day 29 (Example 105); assay type: in vivo; details: ZDF rats
Procedure: (§3) ZDF rats were treated daily with Compound 10, vehicle, or pioglitazone for sixteen days and monitored for an additional two weeks post-treatment until Day 29. STZ rat models were induced through pre-treatment of animals on a high-fat diet with low doses of streptozotocin at Day −14 and Day −7 prior to starting treatment at Day Zero until Day 16. ZDF and STZ rats were monitored for fasting blood glucose levels, oral glucose tolerance test (OGTT), insulin and C-peptide levels, HOMA-IR (Homeostatic Model Assessment of Insulin Resistance), blood lipemic levels, and body weight according to the schematic for each model below. ZDF rats were analyzed for indicated readouts for fifteen days post-treatment for OGTT at Day 29, and serum insulin and C-peptide at Day 31.
ZDF Rat Model—three treatment groups 1. Vehicle; 2. Compound 10 at 175 mg/kg; and 3. Pioglitazone at 30 mg/kg; n=10 per group. Daily dosing zero to sixteen days QD 4 drug wash out at sixteen to twenty-nine days. Rats were monitored for the following parameters through dosing and wash out phases—body weight, fasting blood sugar, blood insulin, C-peptide, and OGTT.

[5] = test system: Streptozotocin-induced Rat (STZ); test: STZ rat model, 16 days dosing (Example 105); assay type: in vivo; details: STZ rats
Procedure: as §3
STZ Rat Model—three treatment groups 1. Vehicle; 2. Compound 10 at 175 mg/kg; and 3. Pioglitazone at 30 mg/kg; n=10 per group. Fourteen-day STZ pretreatment prior to dosing. Daily dosing zero to sixteen days QD. Rats were monitored for the following parameters through dosing—body weight, blood glucose levels, and OGTT.

[6] = test system: Zucker Diabetic Fatty (ZDF) rats; test: Reduction in HbA1c in ZDF rats, 28 days dosing and washout (Example 106); assay type: in vivo, rat
Procedure: Zucker Diabetic Fatty (ZDF) rats were dosed daily with Compound 10, liraglutide, or vehicle for twenty-eight days (n=10 per group) and monitored for an additional twenty-eight days post last dose. Fasting blood glucose, insulin, C-peptide levels, HbA1c, oral glucose tolerance test (OGTT), and body weight were monitored during and post-treatment.
ZDF Rat Model—five treatment groups 1. Vehicle; 2. Compound 10 at 40 mg/kg; 3. Compound 10 at 85 mg/kg; 4. Compound 10 at 170 mg/kg; and 5. Liraglutide at 0.2 mg/kg; n=10 per group. Group 2 dose (40 mg/kg) was increased to 200 mg/kg on Day 17 for rest of the dosing phase. Daily dosing zero to twenty-eight days days QD 4 drug wash out twenty-eight to fifty-six days. Rats were monitored for the following parameters through dosing and wash out phases—body weight, fasting blood sugar, blood insulin, C-peptide, OGTT, and HbA1C.

[7] = 175 mg/kg QD, after two weeks of treatment
[8] = 175 mg/kg QD, after two weeks of treatment, p<0.05
[9] = twenty-eight days of treatment, FIG. 18
[10] = up to the last day of dosing, lasting two weeks post last dose

## C=CC(=O)N[C@@H]1CCCN(Cc2ccnc(C(=O)Nc3ccc(-c4cc5c(N6CCOCC6)ncnc5[nH]4)cc3)c2)C1 [Compound 10]
[1]; 175 mg/kg/day PO QD, Days 1, 8, 14, compared to vehicle and control, FIG. 2A
  insulin, non-fasting state: significant reduction
[1]; 175 mg/kg/day PO QD, compared to vehicle and control, FIG. 1B
  glucose, fasting state: significant reduction
[1]; 175 mg/kg/day PO QD, compared to vehicle and control, FIG. 2B
  insulin, fasting state: significant reduction
[1]; 175 mg/kg/day PO QD, compared to vehicle and control, FIG. 3A
  insulin resistance (HOMA), non-fasting state: significant reduction
[1]; 175 mg/kg/day PO QD, compared to vehicle and control, FIG. 3B
  insulin resistance (HOMA), fasting state: significant reduction
[1]; Compound 10 175 mg/kg/day PO QD, compared to vehicle and control (pioglitazone), FIG. 1A
  glucose, non-fasting state: significant reduction
[1]; Day 29, after fourteen days of no treatment, FIGS. 5A-5B
  oral glucose tolerance test (blood glucose, AUC), Day 29: significant glucose control
[1]; FIG. 7
  C-peptide two weeks after therapy: increasing C-peptide
[1]; after fifteen days of treatment, 2 g/kg glucose, FIGS. 4A-4B
  oral glucose tolerance test (blood glucose, AUC): significant glucose control
[1]; no therapy for two weeks, statistically superior to control, FIG. 6A
  4-hour fasting insulin after two weeks without therapy: increasing insulin
[1]; no therapy for two weeks, statistically superior to control, FIG. 6B
  4-hour fasting glucose after two weeks without therapy: glucose lowering
[2]; STZ-induced Wistar Han rats, 175 mg/kg/day PO QD, compared to vehicle and control, FIG. 8
  non-fasting glucose: sharp reduction
[2]; STZ-induced rats, Day 17
  insulin, 4-hour fasting state (FIG. 10B): maintenance or reduction
[2]; STZ-induced rats, Days 1, 8 and 14
  insulin, non-fasting state (FIG. 10A): maintenance or reduction
[2]; STZ-induced rats, Days 1 and 8
  insulin, non-fasting state (FIG. 9): significant reduction
[2]; STZ-induced rats, after fifteen days of treatment, significant relative to vehicle and control, FIGS. 11A-11B
  oral glucose tolerance test (blood glucose, AUC): significant glucose control
[3]; 28 days daily treatment, Day 29, FIG. 12
  absolute reduction in HbA1C versus vehicle: 3.5%
[3]; FIG. 12
  HbA1C throughout the entire study, including post-treatment: remained reduced
[3]; both Compound 10 dose groups, in contrast to vehicle and liraglutide
  oral glucose tolerance test (OGTT) on Day 25: improved glycemic control
[3]; daily treatment for twenty-eight days, throughout the study
  tolerability: tolerated Compound 10 well
[3]; high-dose arm, during treatment up to Day 29
  4-hour fasting blood glucose: strong reduction
[4]; 175 mg/kg QD for sixteen days, 175 mg/kg
  body weight: reduces body weight; also recorded: Significant reductions
[4]; 175 mg/kg QD for sixteen days, Day 17, p<0.01, 175 mg/kg
  blood lipemic levels (cholesterol, triglycerides): significantly reduces; also recorded: Significant reductions
[4]; [7]
  reduction in fasting blood glucose levels: ~50%
  reduction in non-fasting blood glucose levels: ~50%
[4]; 175 mg/kg QD, after two weeks of treatment, p<0.001
  HOMA-IR: reduced
[4]; [8]
  C-peptide levels: significantly reduced
  serum insulin levels: significantly reduced
[4]; 175 mg/kg QD, p<0.001
  OGTT AUC reduction, Day 15: 54%
[4]; drug washout, ~two weeks after the last dose, p<0.05
  OGTT AUC reduction, Day 29: 40%
[4]; sixteen days of treatment, FIG. 16
  insulin sensitivity (HOMA-IR): increases insulin sensitivity
[4]; two weeks after the last dose, FIG. 14
  blood glucose, insulin, and C-peptide levels during drug washout: maintains significant impact
[5]
  body weight: Significant reductions
[5]; 175 mg/kg QD, measured weekly during treatment, FIG. 15B, 175 mg/kg
  blood glucose levels (non-fasting) during treatment: strongly reduces; also recorded: reduction of glucose levels
[5]; Compound 10 175 mg/kg, pioglitazone 30 mg/kg QD, p<0.05
  OGTT AUC reduction, Day 15: 41%
[5]; p<0.01
  blood lipemic levels: Significant reductions
[6]; 4-week dosing study
  HbA1c, all doses tested: significantly reduces; also recorded: significant reductions
[6]; 85 and 170 mg/kg QD, similar to liraglutide
  fasting blood glucose levels, mid- and high-dose arms: reduction
[6]; Day 15 post-dosing, FIG. 21
  HbA1c two weeks after the last dose: maintains a significant reduction
[6]; Day 29
  HbA1c absolute amount lower than the liraglutide group: 1.8%
  HbA1c absolute amount lower than the vehicle group: 3.5%
  HbA1c reduced from vehicle (relative): 33%
[6]; Day 29, reduced from vehicle
  HbA1c relative reduction printed with the liraglutide comparison: 20%
[6]; FIG. 20
  glycemic control over four weeks of dosing: durable glycemic control
[6]; high-dose group, one day after treatment stopped
  fasting blood glucose, Day 29: sustained and significant reduction
[6]; high-dose-treated group versus liraglutide
  oral glucose tolerance test (OGTT) on Day 25, high-dose group: improved response versus liraglutide
[6]; in comparison to the vehicle-treated group
  oral glucose tolerance test (OGTT) on Day 25, all dose groups: improved glycemic control
[6]; [9]
  body weight over time: progressive increase
  fasting blood glucose levels over time: progressive increase
[6]; [10]
  fasting c-peptide levels: elevated
  fasting insulin levels: elevated
